The values that follow come from PMC3575795 (Nucleic Acids Research, 2012).

Structures are written as SMILES.

The target in the assay is T1, MfpB (Mycobacterium fluoroquinolone resistance protein B) (Mycolicibacterium smegmatis, UniProt A0QSX9).
T1 sequence (A0QSX9 1-193): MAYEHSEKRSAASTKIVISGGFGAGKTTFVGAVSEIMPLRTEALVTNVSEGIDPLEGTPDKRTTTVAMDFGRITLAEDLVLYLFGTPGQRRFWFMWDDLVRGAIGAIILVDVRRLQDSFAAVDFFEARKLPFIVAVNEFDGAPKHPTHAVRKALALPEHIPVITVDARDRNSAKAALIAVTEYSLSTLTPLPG
The assay can be described thus: isothermal titration calorimetry. In kind it is binding.

In the case of `Nc1nc2c(ncn2[C@@H]2O[C@H](COP(=O)(O)OP(=O)(O)O)[C@@H](O)[C@H]2O)c(=O)[nH]1` [GDP], the Kd – broadly, the equilibrium constant for the complex coming apart – came out at 0.0105 ± 0.0029 µM.

With `Nc1nc2c(ncn2[C@@H]2O[C@H](COP(=O)(O)OP(=O)(O)OP(O)(O)=S)[C@@H](O)[C@H]2O)c(=O)[nH]1` [GTP-γ-S], binding was characterised by a dissociation constant (Kd) of 0.0118 ± 0.0032 µM.
